# Experimental data published in ChEMBL document CHEMBL3885861, “Open TG-GATES”.
# Species: Rattus norvegicus
# Test: Open TG-GATES - Regimen: Single
# Assay type: toxicity, organism-based, Sprague-Dawley
# Set-up: regimen Single, gender Male, age 6 weeks
# Details: in vivo, po, 30 mg/kg, route gavage, dose level Middle; for APTT / Bas / Eos / Fbg / Hb / Ht / Lym / MCH / MCHC / MCV / Mono / Neu / PT / Plat / RBC / Ret / WBC: tissue Blood; for KIDNEY_L / KIDNEY_R / KIDNEY_TOTAL: tissue Kidney; for LIVER: tissue Liver; for A/G / ALP / ALT / AST / BUN / CRE / Ca / Cl / DBIL / GLC / IP / K / LDH / Na / PL / RALB / TBIL / TC / TG / TP / gamma-GTP: tissue Plasma
smiles,measurement,setting,value
OCCOCCN1CCN(C(c2ccccc2)c2ccc(Cl)cc2)CC1 (configuration not stated) [HYDROXYZINE],TERMINAL_BW,3 h,193.6 g
same,APTT,3 h,15.6 s
same,Bas,3 h,0.2%
same,Eos,3 h,0.8%
same,Fbg,3 h,288.4 mg/dL
same,Hb,3 h,13 g/dL
same,Ht,3 h,40.6%
same,Lym,3 h,75.4%
same,MCH,3 h,21.5 pg
same,MCHC,3 h,31.9%
same,MCV,3 h,67.3 fL
same,Mono,3 h,3.4%
same,Neu,3 h,19.6%
same,PT,3 h,15.6 s
same,Plat,3 h,107 x10_4/uL
same,RBC,3 h,604.4 x10_4/ul
same,Ret,3 h,8.9%
same,WBC,3 h,83.3 x10_2/uL
same,KIDNEY_L,3 h,0.9 g
same,KIDNEY_R,3 h,0.9 g
same,KIDNEY_TOTAL,3 h,1.8 g
same,LIVER,3 h,8.7 g
same,A/G,3 h,0.8
same,ALP,3 h,1908.4 IU/L
same,ALT,3 h,42.4 IU/L
same,AST,3 h,74.8 IU/L
same,BUN,3 h,9.2 mg/dL
same,CRE,3 h,0.2 mg/dL
same,Ca,3 h,10.9 mg/dL
same,Cl,3 h,106.2 meq/L
same,DBIL,3 h,0.012 mg/dL
same,GLC,3 h,173.4 mg/dL
same,IP,3 h,9.1 mg/dL
same,K,3 h,4.4 meq/L
same,LDH,3 h,76 IU/L
same,Na,3 h,142 meq/L
same,PL,3 h,140 mg/dL
same,RALB,3 h,2.5 g/dL
same,TBIL,3 h,0.058 mg/dL
same,TC,3 h,78.6 mg/dL
same,TG,3 h,33.2 mg/dL
same,TP,3 h,5.4 g/dL
same,gamma-GTP,3 h,1 IU/L
same,TERMINAL_BW,6 h,192 g
same,APTT,6 h,15.5 s
same,Bas,6 h,0.2%
same,Eos,6 h,0.6%
same,Fbg,6 h,289.4 mg/dL
same,Hb,6 h,12.9 g/dL
same,Ht,6 h,39.9%
same,Lym,6 h,78.8%
same,MCH,6 h,21.4 pg
same,MCHC,6 h,32.2%
same,MCV,6 h,66.4 fL
same,Mono,6 h,3%
same,Neu,6 h,16.8%
same,PT,6 h,15.1 s
same,Plat,6 h,115.9 x10_4/uL
same,RBC,6 h,601.6 x10_4/ul
same,Ret,6 h,8.8%
same,WBC,6 h,67.5 x10_2/uL
same,KIDNEY_L,6 h,0.9 g
same,KIDNEY_R,6 h,0.9 g
same,KIDNEY_TOTAL,6 h,1.8 g
same,LIVER,6 h,8.4 g
same,A/G,6 h,0.9
same,ALP,6 h,1397.6 IU/L
same,ALT,6 h,38.8 IU/L
same,AST,6 h,73.6 IU/L
same,BUN,6 h,8.4 mg/dL
same,CRE,6 h,0.2 mg/dL
same,Ca,6 h,10.9 mg/dL
same,Cl,6 h,105.8 meq/L
same,DBIL,6 h,0.01 mg/dL
same,GLC,6 h,180.4 mg/dL
same,IP,6 h,10.5 mg/dL
same,K,6 h,4.3 meq/L
same,LDH,6 h,69.2 IU/L
same,Na,6 h,142.6 meq/L
same,PL,6 h,141.8 mg/dL
same,RALB,6 h,2.5 g/dL
same,TBIL,6 h,0.064 mg/dL
same,TC,6 h,83.2 mg/dL
same,TG,6 h,40.6 mg/dL
same,TP,6 h,5.5 g/dL
same,gamma-GTP,6 h,0.8 IU/L
same,TERMINAL_BW,9 h,190.8 g
same,APTT,9 h,15.9 s
same,Bas,9 h,0%
same,Eos,9 h,0.8%
same,Fbg,9 h,281.8 mg/dL
same,Hb,9 h,12.9 g/dL
same,Ht,9 h,40%
same,Lym,9 h,79%
same,MCH,9 h,21.7 pg
same,MCHC,9 h,32.3%
same,MCV,9 h,67.1 fL
same,Mono,9 h,2.6%
same,Neu,9 h,17.2%
same,PT,9 h,15.4 s
same,Plat,9 h,104.8 x10_4/uL
same,RBC,9 h,595.6 x10_4/ul
same,Ret,9 h,8.8%
same,WBC,9 h,60.3 x10_2/uL
same,KIDNEY_L,9 h,0.9 g
same,KIDNEY_R,9 h,0.9 g
same,KIDNEY_TOTAL,9 h,1.7 g
same,LIVER,9 h,8.2 g
same,A/G,9 h,0.9
same,ALP,9 h,1266.8 IU/L
same,ALT,9 h,38 IU/L
same,AST,9 h,70.2 IU/L
same,BUN,9 h,9 mg/dL
same,CRE,9 h,0.2 mg/dL
same,Ca,9 h,10.7 mg/dL
same,Cl,9 h,107 meq/L
same,DBIL,9 h,0.01 mg/dL
same,GLC,9 h,171.6 mg/dL
same,IP,9 h,10.2 mg/dL
same,K,9 h,4 meq/L
same,LDH,9 h,83.6 IU/L
same,Na,9 h,142.8 meq/L
same,PL,9 h,127.8 mg/dL
same,RALB,9 h,2.5 g/dL
same,TBIL,9 h,0.06 mg/dL
same,TC,9 h,67.6 mg/dL
same,TG,9 h,43 mg/dL
same,TP,9 h,5.4 g/dL
same,gamma-GTP,9 h,1 IU/L
same,TERMINAL_BW,24 h,210 g
same,APTT,24 h,16.7 s
same,Bas,24 h,0.2%
same,Eos,24 h,0.8%
same,Fbg,24 h,268 mg/dL
same,Hb,24 h,12.7 g/dL
same,Ht,24 h,39.4%
same,Lym,24 h,74.6%
same,MCH,24 h,21.3 pg
same,MCHC,24 h,32.3%
same,MCV,24 h,65.9 fL
same,Mono,24 h,3.8%
same,Neu,24 h,20.4%
same,PT,24 h,16.1 s
same,Plat,24 h,122 x10_4/uL
same,RBC,24 h,599.2 x10_4/ul
same,Ret,24 h,8%
same,WBC,24 h,75.2 x10_2/uL
same,KIDNEY_L,24 h,0.9 g
same,KIDNEY_R,24 h,0.9 g
same,KIDNEY_TOTAL,24 h,1.8 g
same,LIVER,24 h,10.1 g
same,A/G,24 h,0.8
same,ALP,24 h,1659 IU/L
same,ALT,24 h,45.8 IU/L
same,AST,24 h,68.6 IU/L
same,BUN,24 h,14 mg/dL
same,CRE,24 h,0.2 mg/dL
same,Ca,24 h,11.2 mg/dL
same,Cl,24 h,106.6 meq/L
same,DBIL,24 h,0.018 mg/dL
same,GLC,24 h,188.2 mg/dL
same,IP,24 h,7.9 mg/dL
same,K,24 h,4.1 meq/L
same,LDH,24 h,75.2 IU/L
same,Na,24 h,142.8 meq/L
same,PL,24 h,153.4 mg/dL
same,RALB,24 h,2.6 g/dL
same,TBIL,24 h,0.054 mg/dL
same,TC,24 h,79.2 mg/dL
same,TG,24 h,82 mg/dL
same,TP,24 h,5.6 g/dL
same,gamma-GTP,24 h,1 IU/L
